The values that follow come from patent publication US10618930B2, “Compounds for the treatment of cancer” (Eisai R&D Management Co., Ltd., priority 2017, dated 2020).

The target in data set [1] is REF Human STING (Homo sapiens, UniProt Q86WV6). Briefly: STING variant specific reporter assay, REF-STING (THP1-Dual KO-STING cells). The settings on record: read-out: Human STING EC50 (μM) REF; Table 5; ammonium salt form of each compound. On the technique in general: In a reporter assay the amount or activity of a reporter protein is the signal.
Data set [2] deals with hepatocytes of human. Briefly: Hepatocyte incubation, metabolite identification (human). The note with it: 10 μmol/L. It is filed as in vitro ADME. How it is done:
(§1) Prior to incubations, the cryopreserved hepatocytes were thawed in a water bath at 37° C. One tube of cryopreserved hepatocytes was added to each 50-mL conical tube of cryopreserved hepatocyte recovery medium (UCRM) obtained from In Vitro ADMET Laboratories (Columbia, Md.). The cells were spun in a Beckman centrifuge (Brea, Calif.) with a GH 3.8 rotor at 740 rpm for 10 minutes at […]. The supernatant was removed and the cells were re-suspended in plating media for counting. After the cells were re-suspended in plating media, 20 μL of the re-suspension was transferred and mixed with 20 μL of AOPI staining solution. The solution was gently mixed and cells were counted using a Cellometer (Nexcelom, Lawrence, Mass.). After counting, the cells were then re-suspended at 1 or 2 million viable cells/mL in Williams' E media containing 2 mmol/L L-glutamine (pH 7.4).
(§2) The hepatocyte suspension (50 μL/well) was added into a 48-well plate. […]
(§3) The LC-MS/MS system was composed of a Shimadzu HPLC and an AB-SCIEX TripleTOF 5600 hybrid quadrupole and TOF mass spectrometer (Framingham, Mass.). […] The samples obtained from incubations with hepatocytes were analyzed under both negative and positive scan modes. […]

Data set [3] has as its system hepatocytes of Beagle dog. Briefly: Hepatocyte incubation, metabolite identification (dog). It is filed as in vitro ADME. The note with it: 10 μmol/L. How it is done: as §1, §2, §3
Data set [4] has as its system CT26 tumors. In words: CT26 dual tumor model (mouse colon cancer model).
Protocol: For study B, treatment was started 8 days (0.6 mg/kg, and 10 mg/kg) after the tumor implantation, when the average tumors reached approximately 120 mm^3.
All the mice in the study have two subcutaneous CT26 tumors. The “treated tumor” indicates the tumor with compound direct administration, while “untreated tumor” indicates the tumor without direct compound administration. Tumor volume was followed throughout the experiment. Tumor volume is measured two times weekly after the start of treatment. Tumor burden is calculated from caliper measurements by the formula for the volume of a prolate ellipsoid (L×W^2)/2 where L and W are the respective orthogonal length and width measurements (mm).
In data set [5] the test system is primary human PBMC IFNβ protein production. Briefly: Ex vivo human PBMC stimulation assay, IFNβ protein. It is filed as cell-based. The note with it: average of five donors. As to the method:
After 24 hours of incubation the tubes were centrifuged at 1400 rpm for 5 minutes and supernatants were harvested. Supernatant were stored in −80° C. for subsequent IFNβ measurement. IFNβ measurement was done using Human IFN-β Base Kit (Meso Scale Diagnostics cat # K151ADA) and protocol provided by manufacturer was used. IFN-beta estimation was done by reading assay plate at MESO SECTOR Imager 2400 and using MSD Discovery Workbench 4.0 program. After 24 hours IFNβ protein was analyzed.
Results shown in Table 10 reflect an average of measurements conducted using five different donors.

Data set [6] has as its system hepatocytes of Sprague Dawley rat. Briefly: Hepatocyte incubation, metabolite identification (rat). In kind it is in vitro ADME. The settings on record: 10 μmol/L. How it is done:
as §1, §2, §3

The subject of data set [7] is hepatocytes of CD-1 mouse. Briefly: Hepatocyte incubation, metabolite identification (mouse). In kind it is in vitro ADME. The settings on record: 10 μmol/L. How it is done:
as §1, §2, §3

For data set [8], the system named is hepatocytes of Cynomolgus monkey. Briefly: Hepatocyte incubation, metabolite identification (monkey). The note with it: 10 μmol/L. It is filed as in vitro ADME. As to the method: as §1, §2, §3

Chain of REF Human STING (Q86WV6 whole entry): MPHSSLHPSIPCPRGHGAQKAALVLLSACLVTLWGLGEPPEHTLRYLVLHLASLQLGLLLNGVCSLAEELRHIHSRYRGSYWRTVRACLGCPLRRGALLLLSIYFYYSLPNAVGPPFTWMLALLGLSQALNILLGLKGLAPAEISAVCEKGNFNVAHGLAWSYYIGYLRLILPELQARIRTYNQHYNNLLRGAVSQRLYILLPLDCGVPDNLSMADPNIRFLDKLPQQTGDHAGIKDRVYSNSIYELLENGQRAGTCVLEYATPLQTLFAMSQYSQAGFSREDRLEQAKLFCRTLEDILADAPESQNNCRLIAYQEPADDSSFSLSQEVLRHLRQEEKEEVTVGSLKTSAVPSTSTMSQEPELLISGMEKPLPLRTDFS

Usually EC50 stands for the concentration at which the effect is half-maximal. As to `O=P1(S)OC[C@H]2O[C@@H]3[C@H](F)[C@@H]2OP(=O)(S)OC[C@H]2OC([C@H](F)[C@@H]2O1)n1cnc2c(ncnc21)NCC/C=C/CNc1ncnc2c1ncn23` (single isomer, unassigned) [Compound 37], the concentration for a half-maximal effect (EC50) in data set [1] is more than 100 µM.
As to `O=[P@]1(S)OC[C@H]2O[C@@H]3[C@H](F)[C@@H]2O[P@](=O)(S)OC[C@H]2O[C@H]([C@H](F)[C@@H]2O1)n1cnc2c(ncnc21)NC/C=C/CNc1ncnc2c1ncn23` [Compound 1a], the “metabolites identified (LC-MS/MS)” value in data set [2] (human hepatocytes), in data set [3] (dog hepatocytes), in data set [6] (rat hepatocytes), in data set [7] (mouse hepatocytes) and in data set [8] (monkey hepatocytes) was “No apparent metabolite” each time. The “stability in incubations with hepatocytes” value is listed as “stable” in data set [2] (human, up to 240 minutes); “stable” in data set [3] (dog, up to 240 minutes); “stable” in data set [6] (rat, up to 240 minutes); “stable” in data set [7] (mouse, up to 240 minutes); “stable” in data set [8] (monkey, up to 240 minutes). In data set [4] (0.6 mg/kg, intratumoral single dose (study B)), the “cure rate, treated tumors” value is on record as 20%. The “animals cured of treated tumor at the end of study” value in data set [4] (10 mg/kg, intratumoral single dose (study B)) was determined as 100%. Further, the “curative effects, untreated tumors” value in data set [4] (10 mg/kg, intratumoral single dose into the other tumor) is on record as 80%. The “IFNβ” value was found to be 21.3 ± 17.8 pg/mL in data set [5] (0.1 μM, 24 hours); 540.2 ± 215.0 pg/mL in data set [5] (10 μM, 24 hours); 227.5 ± 62.4 pg/mL in data set [5].
